How the values were obtained:
HBV = assay: Cell culture experiments with N-nonyl-DNJ: total HBV DNA and immune precipitated DNA; assay type: cell-based, hepatitis B virus
From the text: (§1) There are two measures of drug efficacy: reduction in total HBV DNA (measured by quantitative PCR), and reduction in HBV DNA from capsids with intact surface glycoproteins, which is the active form of the virus (measured by an ELISA-like immune precipitation assay followed by quantitative PCR).

[1] = tested on: woodchuck hepatitis virus (WHV); assay: Woodchuck model, N-nonyl-DNJ monotherapy, BID oral dosing; assay type: in vivo
Method: Therefore, five groups of four animals each (all groups had both sexes, all but the control had two of each sex) were assigned to 0, 12.5, 25, 50, and 100 mg/kg/day with BID oral dosing. These were lab-reared wild animals. All animals were infected with woodchuck hepatitis virus (WHV) as neonates, and had been tested positive on serological tests for WHV surface antigen. Blood samples were drawn one week prior to dosing (−1 week), immediately before dosing (0 weeks), weekly during dosing (1, 2, 3, and 4 weeks), and after the end of dosing (5, 6, 8, and 10 weeks).
as §1
Before models are fitted to the data, a log transform was applied because: 1) the variation in IPDNA increases with increasing IPDNA values; the log transformation gives values with a nearly constant variation, and 2) it is expected that drug effects will appear as a constant multiplier of the IPDNA level. Because there are zero values of IPDNA, a small value (about ½ of the smallest non-zero value) was added to all values before the log transform.
Two approaches were used to model the changes in slope to week with dose of N-nonyl-DNJ: a linear modeling approach and a nonlinear model. Both approaches assume that the (linear) rate of change of the Log(IPDNA) measure over the dosing period is the “right” measure to reflect the effect of the drug on the virus. Both approaches are fit in stages, and the first stage is common to both approaches. First, a simple straight line regression model is fit using weeks 0-4 to predict log(IPDNA_+—10) separately for each animal by run combination. In the second stage, the response variable is the slope fitted in the first stage.
For the linear approach, a model is fit with slope to week as the response where run is considered a block, dose has a significant effect (almost all of this effect is due to a slope to dose), and the relevant error for testing the effect of dose is the variation among animals treated alike (after the adjustment for the runs as blocks). This is similar to using the calibration data within each run to first adjust each run's data to a common virus DNA concentration; the difference is that here the data from the woodchucks are used for the run adjustment rather than only the calibration data.
For the nonlinear approach, a four parameter logistic model is fit with the slope to week as the response and the dose as the predictor. Again, run is considered a block, but because no run has all weeks, it is not possible to fully reflect the blocking in the nonlinear approach. […] The average maximum slope observed was 2.71 additional Log(IPDNA g/mL)/week, or an increase of about 150%/week, the average minimum slope observed with N-nonyl-DNJ is 0.31 fewer Log(IPDNA g/mL)/week), or about a decrease of about 25%/week. The slopes, the fitted model, the parameter estimates from the model, and the approximate standard errors for these parameters are all shown in FIG. 3. […] Whether in woodchucks or humans, the effective dose of both the N-alkyl-DNJ and nucleoside or nucleotide antiviral agent administerd in combination therewith can be administerd in two equal daily subdoses (i.e., B.I.D.).

CCCCCCCCCN1C[C@H](O)[C@@H](O)[C@H](O)[C@H]1CO [N-nonyl-DNJ, N-(n-nonyl)-1,5-dideoxy-1,5-imino-D-glucitol]
effect on the immune precipitated DNA (IPDNA) (HBV): marked effect
effect on total HBV DNA (HBV): little or no effect
effect on total HBV DNA measurements ([1]; all dose levels, quantitative PCR): no effect
levels of IPDNA over the dosing period ([1]; high dose animals, weeks 0-4): decreasing levels of IPDNA
levels of IPDNA over the dosing period ([1]; low dose animals, weeks 0-4): increasing levels of IPDNA
average minimum slope observed ([1]; weeks 0-4): 0.31 fewer Log(IPDNA g/mL)/week
decrease of IPDNA per week at average minimum slope ([1]; weeks 0-4): about 25 %/week
approximate effective monotherapy dose ([1]; woodchucks): about 16 mg/kg/day

— US6545021B1, “Use of substituted-1,5-dideoxy-1,5-imino-D-glucitol compounds for treating hepatitis virus infections” (G.D. Searle & Co., priority 1999, dated 2003)
